Assay results: ChEMBL document CHEMBL1201862, “PubChem BioAssay data set” (2004)
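The compound was tested at five concentrations on cells cultured in 96-well plates, with a 48-hour exposure period. GI50 marks 50% less growth.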 The source made the active and inactive calls. No stated cut-off is given here; in the data, active = GI50 up to about 1.1 µM and inactive = higher.

Legend:
Test in all cases: NCI anticancer screen, dose series, 48 h
[1] = test system: HCC 2998
[2] = test system: HOP-62
[3] = test system: SNB-19
[4] = test system: OVCAR-5
[5] = test system: ACHN
[6] = test system: OVCAR-4
[7] = test system: 786-0
[8] = test system: A498
[9] = test system: A549
[10] = test system: TK-10
[11] = test system: UACC-257
[12] = test system: OVCAR-8
[13] = test system: HCT-116
[14] = test system: NCI-H226
[15] = test system: NCI-H23
[16] = test system: HOP-92
[17] = test system: SR
[18] = test system: CCRF-CEM
[19] = test system: MOLT-4
[20] = test system: RPMI-8226
[21] = test system: MDA-N
[22] = test system: SF-268
[23] = test system: SW-620
[24] = test system: EKVX
[25] = test system: SN12C
[26] = test system: MCF7
[27] = test system: UO-31
[28] = test system: RXF 393
[29] = test system: T47D
[30] = test system: MDA-MB-231
[31] = test system: CAKI-1
[32] = test system: COLO 205
[33] = test system: Hs-578T
[34] = test system: HT-29
[35] = test system: SF-295
[36] = test system: HL-60
[37] = test system: NCI-H522
[38] = test system: PC-3
[39] = test system: K562
[40] = test system: SNB-75
[41] = test system: HCT-15
[42] = test system: BT-549
[43] = test system: MDA-MB-435
[44] = test system: SK-MEL-5
[45] = test system: M14
[46] = test system: KM12
[47] = test system: DU-145
[48] = test system: SK-MEL-28
[49] = test system: NCI/ADR-RES
[50] = test system: LOX IMVI
[51] = test system: IGROV-1
[52] = test system: U-251
[53] = test system: UACC-62
[54] = test system: SK-OV-3
[55] = test system: NCI-H460
[56] = test system: SK-MEL-2
[57] = test system: OVCAR-3
[58] = test system: Malme-3M
[59] = test system: SF-539

## Cc1cccc2c(N)c3cccc(C(=O)NCC[N+](C)(C)Cc4ccc([N+](=O)[O-])n4C)c3nc12
[1]
  GI50: 10.6 µM (inactive)
[2]
  GI50: 5.25 µM (inactive)
[3]
  GI50: 15.6 µM (inactive)
[4]
  GI50: 17.6 µM (inactive)
[5]
  GI50: 10.1 µM (inactive)
[6]
  GI50: 46.8 µM (inactive)
[7]
  GI50: 7.45 µM (inactive)
[8]
  GI50: 10.4 µM (inactive)
[9]
  GI50: 1.92 µM (inactive)
[10]
  GI50: 47.9 µM (inactive)
[11]
  GI50: 53.5 µM (inactive)
[12]
  GI50: 18.7 µM (inactive)
[13]
  GI50: 14.6 µM (inactive)
[14]
  GI50: 6.5 µM (inactive)
[15]
  GI50: 13.2 µM (inactive)
[16]
  GI50: 33.5 µM (inactive)
[17]
  GI50: 3.44 µM (inactive)
[18]
  GI50: 3.7 µM (inactive)
[19]
  GI50: 1.66 µM (inactive)
[20]
  GI50: 12.1 µM (inactive)
[21]
  GI50: 41.3 µM (inactive)
[22]
  GI50: 8.47 µM (inactive)
[23]
  GI50: 18.6 µM (inactive)
[24]
  GI50: 27.6 µM (inactive)
[25]
  GI50: 3.07 µM (inactive)
[26]
  GI50: 8.65 µM (inactive)
[27]
  GI50: 16.2 µM (inactive)
[28]
  GI50: 22.4 µM (inactive)
[29]
  GI50: 4.71 µM (inactive)
[30]
  GI50: 38.6 µM (inactive)
[31]
  GI50: 7.1 µM (inactive)
[32]
  GI50: 9.82 µM (inactive)
[33]
  GI50: 7.26 µM (inactive)
[34]
  GI50: 9.33 µM (inactive)
[35]
  GI50: 17.6 µM (inactive)
[36]
  GI50: 4.6 µM (inactive)
[37]
  GI50: 8.65 µM (inactive)
[38]
  GI50: 24 µM (inactive)
[39]
  GI50: 11.5 µM (inactive)
[40]
  GI50: 6.32 µM (inactive)
[41]
  GI50: 27.9 µM
[42]
  GI50: > 42.6 µM (inactive)
[43]
  GI50: 52 µM (inactive)
[44]
  GI50: 21.7 µM (inactive)
[45]
  GI50: 23.3 µM (inactive)
[46]
  GI50: 16.7 µM (inactive)
[47]
  GI50: 18.8 µM (inactive)
[48]
  GI50: 43.8 µM (inactive)
[49]
  GI50: 55.3 µM (inactive)
[50]
  GI50: 18 µM (inactive)
[51]
  GI50: 9.53 µM (inactive)
[52]
  GI50: 8.26 µM (inactive)
[53]
  GI50: 44.3 µM (inactive)
[54]
  GI50: 25.1 µM (inactive)
[55]
  GI50: 8.97 µM (inactive)
[56]
  GI50: 67.6 µM (inactive)
[57]
  GI50: 24.7 µM (inactive)
[58]
  GI50: 15.2 µM (inactive)
[59]
  GI50: 13.5 µM (inactive)
